Test results published in US4415574A, “Soluble N2 substituted derivatives of 2,4-diamino 5-benzyl pyrimidine, process for their preparation and medicaments containing them” (S. A. Panmedica, priority 1981, dated 1983).

What was measured:
Format in all cases: cell-based
COLI [1] = experiment: Inhibiting minimum concentration (I.M.C.), activity relative to trimethoprime, MULLER HINTON COLI MEDIUM 4; settings: for % activity with respect to the base: ratio of I.M.C. to trimethoprime; for % activity to the base corrected by molecular weight: ratio to trimethoprime
Experimental: (§1) The antibacterial activity of the derivatives according to the invention were tested in vitro by determining the inhibiting minimum concentrations (I.M.C.) on different germs.

BACIL PUMILUS = experiment: Inhibiting minimum concentration (I.M.C.), activity relative to trimethoprime, MULLER HINTON BACIL PUMILUS MEDIUM; settings: for % activity with respect to the base: ratio of I.M.C. to trimethoprime; for % activity with respect to the base corrected by molecular weight: ratio to trimethoprime
Experimental: as §1

COLI [2] = experiment: Inhibiting minimum concentration (I.M.C.), activity relative to trimethoprime, OXOIDE COLI MEDIUM 4; settings: for % activity with respect to the base: ratio of I.M.C. to trimethoprime; for % activity with respect to the base corrected by molecular weight: ratio to trimethoprime
Experimental: as §1

Question: Which “% activity with respect to the base” value (COLI [1]) does the source give for COc1cc(Cc2cnc(NC(c3ccccc3Cl)S(=O)(=O)O)nc2N)cc(OC)c1OC (stereo not shown) [Example 9, N2 (2-Chloro Phenyl) Methane Sulfonic Acid of 2,4-Diamino 5-(3,4,5-Trimethoxy Benzyl) Pyrimidine] here?
Answer: 13.3%

Question: And the “% activity to the base corrected by molecular weight” value (“% activity to the base corrected” for short) (COLI [1])?
Answer: 23%

Question: What about the “% activity with respect to the base” value (BACIL PUMILUS) of the same compound?
Answer: 14.1%

Question: What about the “% activity with respect to the base corrected by molecular weight” value (BACIL PUMILUS) of the same compound?
Answer: 25%

Question: What about the “% activity with respect to the base” value (COLI [2]) of the same compound?
Answer: 14.7%

Question: What about the “% activity with respect to the base corrected by molecular weight” value (COLI [2]) of the same compound?
Answer: 26%

Question: What does the source list for CCC(C)C(C)C(Nc1ncc(Cc2cc(OC)c(OC)c(OC)c2)c(N)n1)S(=O)(=O)O (stereo not shown) [Example 6, N2 (2,3-Dimethyl) Pentane Sulfonic Acid of 2,4-Diamino 5-(3,4,5-Trimethoxy Benzyl) Pyrimidine]?
Answer: % activity with respect to the base (COLI [1]): 15.75%; % activity to the base corrected by molecular weight (COLI [1]): 27%; % activity with respect to the base (BACIL PUMILUS): 16.6%; % activity with respect to the base corrected by molecular weight (BACIL PUMILUS): 28%; % activity with respect to the base (COLI [2]): 18.8%; % activity with respect to the base corrected by molecular weight (COLI [2]): 32%

Question: For COc1cc(Cc2cnc(NC(c3ccccc3O)S(=O)(=O)O)nc2N)cc(OC)c1OC (stereo not shown) [Example 25f, N2 (2-HYDROXY) PHENYL METHANE SULFONIC ACID OF 5-(3,4,5-TRIMETHOXY BENZYL) 2,4-DIAMINO PYRIMIDINE], which “% activity with respect to the base” value (COLI [1]) is on record?
Answer: 55.4%

Question: What about the “% activity to the base corrected” value (COLI [1]) of the same compound?
Answer: 120%

Question: What about the “% activity with respect to the base” value (BACIL PUMILUS) of the same compound?
Answer: 73.1%

Question: And the “% activity with respect to the base corrected by molecular weight” value (BACIL PUMILUS)?
Answer: 159%

Question: And the “% activity with respect to the base” value (COLI [2])?
Answer: 38.3%

Question: And the “% activity with respect to the base corrected by molecular weight” value (COLI [2])?
Answer: 84%

Question: For COc1cc(Cc2cnc(NC(c3ccccc3O)S(=O)(=O)O)nc2N)cc(OC)c1OC (stereo not shown) [Example 25d, N2 (2-HYDROXY) PHENYL METHANE SULFONIC ACID OF 5-(3,4,5-TRIMETHOXY BENZYL) 2,4-DIAMINO PYRIMIDINE], which “% activity with respect to the base” value (COLI [1]) is on record?
Answer: 45.4%

Question: And the “% activity to the base corrected” value (COLI [1])?
Answer: 85%

Question: What about the “% activity with respect to the base” value (BACIL PUMILUS) of the same compound?
Answer: 55.5%

Question: And the “% activity with respect to the base corrected by molecular weight” value (BACIL PUMILUS)?
Answer: 104%

Question: And the “% activity with respect to the base” value (COLI [2])?
Answer: 28.3%

Question: And the “% activity with respect to the base corrected by molecular weight” value (COLI [2])?
Answer: 53%

Question: With COc1cc(Cc2cnc(NC(c3ccccc3[N+](=O)[O-])S(=O)(=O)O)nc2N)cc(OC)c1OC (stereo not shown) [Example 14, N2 (2-Nitro Phenyl) Methane Sulfonic Acid of 2,4-Diamino 5-(3,4,5-Trimethoxy Benzyl) Pyrimidine] as the compound, how does the “% activity with respect to the base” value (COLI [1]) read?
Answer: 13.9%

Question: What about the “% activity to the base corrected” value (COLI [1]) of the same compound?
Answer: 25%

Question: What about the “% activity with respect to the base” value (BACIL PUMILUS) of the same compound?
Answer: 11.0%

Question: And the “% activity with respect to the base corrected by molecular weight” value (BACIL PUMILUS)?
Answer: 20%

Question: What about the “% activity with respect to the base” value (COLI [2]) of the same compound?
Answer: 10.6%

Question: And the “% activity with respect to the base corrected by molecular weight” value (COLI [2])?
Answer: 19%

Question: How did the “% activity with respect to the base” value (COLI [1]) turn out when COc1cc(Cc2cnc(NC(C(C)C)S(=O)(=O)O)nc2N)cc(OC)c1OC (stereo not shown) [Example 4, N2 (2-Methyl) Propane Sulfonic Acid of 2,4-Diamino 5-(3,4,5-Trimethoxy Benzyl) Pyrimidine] was run?
Answer: 14.1%

Question: And the “% activity to the base corrected” value (COLI [1])?
Answer: 22%

Question: And the “% activity with respect to the base” value (BACIL PUMILUS)?
Answer: 11.8%

Question: And the “% activity with respect to the base corrected by molecular weight” value (BACIL PUMILUS)?
Answer: 18%

Question: And the “% activity with respect to the base” value (COLI [2])?
Answer: 12.9%

Question: And the “% activity with respect to the base corrected by molecular weight” value (COLI [2])?
Answer: 20%

Question: With COc1cccc(C(Nc2ncc(Cc3cc(OC)c(OC)c(OC)c3)c(N)n2)S(=O)(=O)O)c1 (stereo not shown) [Example 16, N2 (3-Methoxy Phenyl) Methane Sulfonic Acid 2,4-Diamino 5-(3,4,5-Trimethoxy Benzyl) Pyrimidine] as the compound, how does the “% activity with respect to the base” value (COLI [1]) read?
Answer: 16.8%

Question: What about the “% activity to the base corrected” value (COLI [1]) of the same compound?
Answer: 29%

Question: And the “% activity with respect to the base” value (BACIL PUMILUS)?
Answer: 10.7%

Question: And the “% activity with respect to the base corrected by molecular weight” value (BACIL PUMILUS)?
Answer: 19%

Question: And the “% activity with respect to the base” value (COLI [2])?
Answer: 13.2%

Question: What about the “% activity with respect to the base corrected by molecular weight” value (COLI [2]) of the same compound?
Answer: 23%

Question: For COc1cc(Cc2cnc(NC(C(C)(C)C)S(=O)(=O)O)nc2N)cc(OC)c1OC (stereo not shown) [Example 5, N2 (2,2-Dimethyl) Propane Sulfonic Acid of 2,4-Diamino 5-(3,4,5-Trimethoxy Benzyl) Pyrimidine], which “% activity with respect to the base” value (COLI [1]) is on record?
Answer: 23.3%

Question: What about the “% activity to the base corrected” value (COLI [1]) of the same compound?
Answer: 37%

Question: And the “% activity with respect to the base” value (BACIL PUMILUS)?
Answer: 19.4%

Question: What about the “% activity with respect to the base corrected by molecular weight” value (BACIL PUMILUS) of the same compound?
Answer: 30%

Question: And the “% activity with respect to the base” value (COLI [2])?
Answer: 18.4%

Question: And the “% activity with respect to the base corrected by molecular weight” value (COLI [2])?
Answer: 29%

Question: How did the “% activity with respect to the base” value (COLI [1]) turn out when CCOc1cc(C(Nc2ncc(Cc3cc(OC)c(OC)c(OC)c3)c(N)n2)S(=O)(=O)O)ccc1O (stereo not shown) [Example 24e, N2 (3-Ethoxy 4-Hydroxy) Phenyl Methane Sulfonic Acid of 5-(3,4,5-Trimethoxy Benzyl) 2,4-Diamino Pyrimidine] was run?
Answer: 40.0%

Question: And the “% activity to the base corrected” value (COLI [1])?
Answer: 86%

Question: And the “% activity with respect to the base” value (BACIL PUMILUS)?
Answer: 40.0%

Question: What about the “% activity with respect to the base corrected by molecular weight” value (BACIL PUMILUS) of the same compound?
Answer: 86%

Question: And the “% activity with respect to the base” value (COLI [2])?
Answer: 21.3%

Question: And the “% activity with respect to the base corrected by molecular weight” value (COLI [2])?
Answer: 46%

Question: How did the “% activity with respect to the base” value (COLI [1]) turn out when COc1cc(Cc2cnc(NC(c3ccccc3)S(=O)(=O)O)nc2N)cc(OC)c1OC (stereo not shown) [Example 8, N2 Phenyl Methane Sulfonic Acid of 2,4-Diamino 5-(3,4,5-Trimethoxy Benzyl) Pyrimidine] was run?
Answer: 10.2%

Question: And the “% activity to the base corrected” value (COLI [1])?
Answer: 16.4%

Question: What about the “% activity with respect to the base” value (BACIL PUMILUS) of the same compound?
Answer: 18.4%

Question: What about the “% activity with respect to the base corrected by molecular weight” value (BACIL PUMILUS) of the same compound?
Answer: 26%

Question: And the “% activity with respect to the base” value (COLI [2])?
Answer: 13.3%

Question: What about the “% activity with respect to the base corrected by molecular weight” value (COLI [2]) of the same compound?
Answer: 21%

Question: What does the source list for COc1cc(Cc2cnc(NCS(=O)(=O)O)nc2N)cc(OC)c1OC [Example 1, N2 Methane Sulfonic Acid of 2,4-Diamino 5-(3,4,5-TrimethoxyBenzyl) Pyrimidine]?
Answer: % activity with respect to the base (COLI [1]): 0.3%; % activity to the base corrected by molecular weight (COLI [1]): 0.4%; % activity with respect to the base (BACIL PUMILUS): 0.1%; % activity with respect to the base (COLI [2]): 17.1%; % activity with respect to the base corrected by molecular weight (COLI [2]): 24%

Question: With CCC(CC)C(Nc1ncc(Cc2cc(OC)c(OC)c(OC)c2)c(N)n1)S(=O)(=O)O (stereo not shown) [Example 7, N2 (2-Ethyl) Butane Sulfonic Acid of 2,4-Diamino 5-(3,4,5-Trimethoxy Benzyl) Pyrimidine] as the compound, how does the “% activity with respect to the base” value (COLI [1]) read?
Answer: 15.5%

Question: What about the “% activity to the base corrected” value (COLI [1]) of the same compound?
Answer: 25%

Question: What about the “% activity with respect to the base” value (BACIL PUMILUS) of the same compound?
Answer: 14%

Question: What about the “% activity with respect to the base corrected by molecular weight” value (BACIL PUMILUS) of the same compound?
Answer: 23%

Question: What about the “% activity with respect to the base” value (COLI [2]) of the same compound?
Answer: 14%

Question: What about the “% activity with respect to the base corrected by molecular weight” value (COLI [2]) of the same compound?
Answer: 23%

Question: COc1cc(Cc2cnc(NC(c3ccc(Cl)cc3)S(=O)(=O)O)nc2N)cc(OC)c1OC (stereo not shown) [Example 11, N2 (4-Chloro Phenyl) Methane Sulfonic Acid of 2,4-Diamino 5-(3,4,5-Trimethoxy Benzyl) Pyrimidine] was tested. Which “% activity with respect to the base” value (COLI [1]) did it give?
Answer: 17.6%

Question: What about the “% activity to the base corrected” value (COLI [1]) of the same compound?
Answer: 31%

Question: What about the “% activity with respect to the base” value (BACIL PUMILUS) of the same compound?
Answer: 23%

Question: What about the “% activity with respect to the base corrected by molecular weight” value (BACIL PUMILUS) of the same compound?
Answer: 41%

Question: What about the “% activity with respect to the base” value (COLI [2]) of the same compound?
Answer: 25.6%

Question: What about the “% activity with respect to the base corrected by molecular weight” value (COLI [2]) of the same compound?
Answer: 45%

Question: Which “% activity with respect to the base” value (COLI [1]) does the source give for COc1cc(Cc2cnc(NC(c3ccccc3O)S(=O)(=O)O)nc2N)cc(OC)c1OC (stereo not shown) [Example 25c, N2 (2-HYDROXY) PHENYL METHANE SULFONIC ACID OF 5-(3,4,5-TRIMETHOXY BENZYL) 2,4-DIAMINO PYRIMIDINE] here?
Answer: 57%

Question: What about the “% activity to the base corrected” value (COLI [1]) of the same compound?
Answer: 116%
